Data set [1] concerns BxPC3 human pancreatic cancer cell line. In words: In vitro cell viability (MTT) assay, BxPC3. In kind it is cell-based. Particulars: increasing dosages, 96 hours. From the text: In the illustrated example, NIPAAM/VP/AA polymeric nanoparticles in molar ratio of 60:20:20 were used for paclitaxel encapsulation. […] Also included as control in each condition were void polymeric nanoparticle equal to the amount required for encapsulating said dose of nanopaclitaxel (white bar) and solvent (dimethylsulfoxide [DMSO], blue bar) equal to the amount required for dissolving said dose of free paclitaxel. […] Thus, nano-encapsulation of the drug is not associated with loss of drug activity. […] All assays were performed in triplicate and error bars represent standard deviations.
FIG. 9 illustrates in vitro cell viability (MTT assay) performed using the water-soluble drug gemcitabine conjugated to the acrylic acid (AA) surface reactive functional group of polymeric nanoparticle. Unlike the poorly water drugs that are encapsulated within the nanoparticle, water soluble drugs like gemcitabine can be conjugated to the nanoparticle surface, rendering this compound amenable to oral delivery. Human pancreatic cancer cell line BxPC3 is incubated with increasing dosages of either free gemcitabine (black bar), nano-gemcitabine (white bar), void polymer (grey bar), or PBS solvent (patterned bar). UT=untreated. […] All assays were performed in triplicate and means and standard deviations are plotted. […]

Data set [2] can be described thus: Solubilization in water, visual (turbidity, floating particles vs transparent solution). In kind it is physicochemical. Particulars: equivalent amounts of free and nanoparticle-encapsulated drug.
Data set [3] is described as follows: Blood levels of rapamycin 2 hours after oral delivery (HPLC). In kind it is in vivo, C57/B6 wild type mice. The settings on record: 15 mg/kg rapamycin or equivalent, 2 hours post delivery. From the text: FIG. 10 illustrates blood levels of rapamycin following oral delivery of polymeric nanoparticles. Rapamycin was encapsulated in nanoparticles comprised of increasing order of acrylic acid (AA) percentage in the co-polymeric composition. The nanoparticles were either administered as is, or after surface PEGylation. Compared are: Control A (rapamycin suspended in water); rapamycin nanoparticle comprised of NIPAAM:VP:AA in a ratio of 60:30:10 (designated as NVA631); rapamycin nanoparticle comprised of NIPAAM:VP:AA in a ratio of 60:20:20 (designated as NVA622); rapamycin nanoparticle comprised of NIPAAM:VP:AA in a ratio of 60:10:30 (designated as NVA613); and rapamycin nanoparticle comprised of NIPAAM:MMA:AA in a ratio of 60:20:20 (designated as NMA622). The corresponding PEGylated nanoparticles (PEG-NVA-631, PEG-NVA-622, PEG-NVA-613, and PEG-NMA-622) encapsulating rapamycin are designated as shaded bars. […] Blood levels are measured by HPLC from samples obtained at 2 hours post oral delivery.
Rapamycin is a poorly water soluble drug that has low oral bioavailability. […] At 2 hours post oral administration, the mice were bled and rapamycin concentrations in the blood were determined by high performance liquid chromatography (HPLC). […]

These results are taken from patent US8313777B2, “Water-dispersible oral, parenteral, and topical formulations for poorly water soluble drugs using smart polymeric nanoparticles” (The Johns Hopkins University, priority 2006, dated 2012).

In the case of `Nc1ccn([C@@H]2O[C@H](CO)[C@@H](O)C2(F)F)c(=O)n1` [free gemcitabine, gemcitabine], the “activity in cell viability assay, free vs nano-gemcitabine” value in data set [1] is listed as “comparable activity”.

Turning to `CC(=O)O[C@H]1C(=O)[C@@]2(C)[C@H]([C@H](OC(=O)c3ccccc3)[C@]3(O)C[C@H](OC(=O)[C@H](O)[C@@H](NC(=O)c4ccccc4)c4ccccc4)C(C)=C1C3(C)C)[C@]1(OC(C)=O)CO[C@@H]1C[C@@H]2O` [free paclitaxel, paclitaxel], the “solubility in water (appearance of solution)” value (shortened to “solubility in water”) in data set [2] was “essentially insoluble in water”. With `CO[C@H]1C[C@@H]2CC[C@@H](C)[C@@](O)(O2)C(=O)C(=O)N2CCCC[C@H]2C(=O)O[C@H]([C@H](C)C[C@@H]2CC[C@@H](O)[C@H](OC)C2)CC(=O)[C@H](C)/C=C(\C)[C@@H](O)[C@@H](OC)C(=O)[C@H](C)C[C@H](C)/C=C/C=C/C=C/1C` [free rapamycin, rapamycin], the “solubility in water” value in data set [2] is recorded as “essentially insoluble in water”. The “blood level of rapamycin” value in data set [3] is reported as “essentially undetectable”.

In the case of `CO[C@H]1/C=C/O[C@@]2(C)Oc3c(C)c(O)c4c(O)c(c(/C=N/N5CCN(C)CC5)c(O)c4c3C2=O)NC(=O)/C(C)=C\C=C\[C@H](C)[C@H](O)[C@@H](C)[C@@H](O)[C@@H](C)[C@H](OC(C)=O)[C@@H]1C` [free rifampicin, rifampicin], the “solubility in water” value in data set [2] is recorded as “essentially insoluble in water”.
